This is an account of results in PubChem BioAssay AID312 (DTP/NCI, 2004).

This assay deals with BDF1 mice, C1498 leukemia ip, median survival T/C. Put plainly: NCI In Vivo Anticancer Drug Screen. Data for tumor model C1498 Myeloid Leukemia (intraperitoneal) in B6D2F1 (BDF1) mice. The note with it: endpoint: median survival time, higher = longer survival. The method, then: The antitumor activity of compounds was measured in mice bearing transplantable tumors. Survival or tumor size were measured and the results are expressed as the measurement made in the treated group (T) divided by the measurement made in the vehicle treated control group (C). The tumor model used in this assay is C1498 Myeloid Leukemia (intraperitoneal) in B6D2F1 (BDF1) mice

Setting [1] is: dose: 6.25 mg/kg/injection, schedule: Q01DX010 (ip), vehicle: saline.
The mark [2] stands for this setting: dose: 12.5 mg/kg/injection, schedule: Q01DX010 (ip), vehicle: saline.
[3] abbreviates: dose: 25.0 mg/kg/injection, schedule: Q01DX010 (ip), vehicle: saline.
Where [4] appears, read: dose: 50.0 mg/kg/injection, schedule: Q01DX010 (ip), vehicle: saline.
Setting [5] is: dose: 100.0 mg/kg/injection, schedule: Q01DX010 (ip), vehicle: saline.
The mark [6] stands for this setting: dose: 6.0 mg/kg/injection, schedule: Q01DX010 (ip), vehicle: saline.
Where [7] appears, read: dose: 8.0 mg/kg/injection, schedule: Q01DX010 (ip), vehicle: saline.
Where [8] appears, read: dose: 5.0 mg/kg/injection, schedule: Q01DX010 (ip), vehicle: saline.
Setting [9] is: dose: 10.0 mg/kg/injection, schedule: Q01DX010 (ip), vehicle: saline.
The mark [10] stands for this setting: dose: 20.0 mg/kg/injection, schedule: Q01DX010 (ip), vehicle: saline.
[11] abbreviates: dose: 0.5 mg/kg/injection, schedule: Q01DX010 (ip), vehicle: saline.
[12] abbreviates: dose: 16.0 mg/kg/injection, schedule: Q01DX010 (ip), vehicle: saline.
Where [13] appears, read: dose: 2.0 mg/kg/injection, schedule: Q01DX010 (ip), vehicle: saline.
Setting [14] is: dose: 40.0 mg/kg/injection, schedule: Q01DX010 (ip), vehicle: saline.
Where [15] appears, read: dose: 3.13 mg/kg/injection, schedule: Q01DX010 (ip), vehicle: saline.
The mark [16] stands for this setting: dose: 4.0 mg/kg/injection, schedule: Q01DX010 (ip), vehicle: saline.

SMILES strings stand for the structures. “And” between values parts separate entries of the source, which are not always exact repeats. Equal values may be shown once. Inconclusive results and toxic doses are left out.

Consider `Nc1nc(N)c2nc(CNc3ccc(C(=O)NC(CCC(=O)O)C(=O)O)cc3)cnc2n1` (configuration not stated), for which the T/C (dose: 0.05 mg/kg/injection, schedule: Q01DX010 (ip), vehicle: other) is 100 % of control and 103 % of control; the T/C (dose: 0.1 mg/kg/injection, schedule: Q01DX010 (ip), vehicle: other) was 92 % of control and 100 % of control; the T/C (dose: 0.2 mg/kg/injection, schedule: Q01DX010 (ip), vehicle: other) was 100 % of control; the T/C (dose: 0.4 mg/kg/injection, schedule: Q01DX010 (ip), vehicle: other) is 92 % of control.
Take `CC(=O)NC1=C(N2CC2)C(=O)C(NC(C)=O)=C(N2CC2)C1=O`: the T/C was 108 % of control (dose: 0.13 mg/kg/injection, schedule: Q01DX010 (ip), vehicle: saline); 104 % of control (dose: 125.0 micrograms/kg/injection, schedule: Q01DX010 (ip), vehicle: saline); 109 % of control and 116 % of control (dose: 250.0 micrograms/kg/injection, schedule: Q01DX010 (ip), vehicle: saline).
Regarding `CN(C)[C@@H]1C(=O)C(C(N)=O)=C(O)[C@@]2(O)C(=O)C3=C(O)c4c(O)cccc4C[C@H]3C[C@@H]12`, the T/C (dose: 7.5 mg/kg/injection, schedule: Q01DX010 (ip), vehicle: saline) was 105 % of control and 116 % of control; the T/C (dose: 15.0 mg/kg/injection, schedule: Q01DX010 (ip), vehicle: saline) is 110 % of control and 112 % of control; the T/C (dose: 30.0 mg/kg/injection, schedule: Q01DX010 (ip), vehicle: saline) was 95 % of control; the T/C (dose: 60.0 mg/kg/injection, schedule: Q01DX010 (ip), vehicle: saline) was 95 % of control.
As for `CS(=O)(=O)OCCC(=O)N1CCN(C(=O)CCOS(C)(=O)=O)CC1`, the T/C was 100 % of control and 105 % of control under setting [1]; 100 % of control and 110 % of control and 118 % of control under setting [2]; 108 % of control and 109 % of control and 110 % of control under setting [3]; 104 % of control and 109 % of control under setting [4]; 109 % of control under setting [5].
Turning to `CN(Cc1cnc2nc(N)nc(N)c2n1)c1ccc(C(=O)N[C@@H](CCC(=O)O)C(=O)O)cc1`, the T/C is, setting by setting: (dose: 1.5 mg/kg/injection, schedule: Q01DX009 (ip), vehicle: sodium bicarbonate) 110 % of control; (dose: 2.0 mg/kg/injection, schedule: Q01DX009 (ip), vehicle: sodium bicarbonate) 124 % of control.
For the molecule `O=C(Nc1ccc(C2=NCCN2)cc1)c1ccc(C(=O)Nc2ccc(C3=NCCN3)cc2)c([N+](=O)[O-])c1`, the T/C is, setting by setting: under setting [6], 96 % of control and 119 % of control; under setting [7], 100 % of control; (dose: 18.0 mg/kg/injection, schedule: Q01DX010 (ip), vehicle: saline) 103 % of control.
`CC[n+]1c(-c2ccccc2)c2cc(N)ccc2c2ccc(N)cc21`: the T/C runs as follows: (dose: 1.25 mg/kg/injection, schedule: Q01DX010 (ip), vehicle: saline) 110 % of control; (dose: 2.5 mg/kg/injection, schedule: Q01DX010 (ip), vehicle: saline) 105 % of control and 109 % of control; under setting [8], 100 % of control and 110 % of control; under setting [9], 100 % of control and 110 % of control; under setting [10], 100 % of control.
Regarding `C1CN1c1nc(N2CC2)nc(N2CC2)n1`, the T/C was 110 % of control (dose: 0.25 mg/kg/injection, schedule: Q01DX010 (ip), vehicle: saline) and 110 % of control under setting [11].
Consider `CS(=O)(=O)OCCCl`, for which the T/C (dose: 18.8 mg/kg/injection, schedule: Q01DX010 (ip), vehicle: saline) was 90 % of control; the T/C (dose: 37.5 mg/kg/injection, schedule: Q01DX010 (ip), vehicle: saline) is 104 % of control; the T/C (dose: 75.0 mg/kg/injection, schedule: Q01DX010 (ip), vehicle: saline) was 90 % of control.
As to `Cc1cc(N(CCCl)CCCl)ccc1N=Nc1ccccc1C(=O)O`, the T/C under setting [10] is 113 % of control.
`Nc1nc(SCc2ccccc2)c2[nH]cnc2n1`: the T/C reads like this: under setting [7], 100 % of control; under setting [12], 105 % of control; (dose: 32.0 mg/kg/injection, schedule: Q01DX010 (ip), vehicle: saline) 105 % of control; (dose: 64.0 mg/kg/injection, schedule: Q01DX010 (ip), vehicle: saline) 90 % of control.
As for `N=C(N)c1ccc(Nc2ccc(C(=N)N)cc2)cc1`, the T/C by setting is: (dose: 1.5 mg/kg/injection, schedule: Q01DX010 (ip), vehicle: saline) 100 % of control; (dose: 3.0 mg/kg/injection, schedule: Q01DX010 (ip), vehicle: saline) 90 % of control; under setting [6], 86 % of control; (dose: 12.0 mg/kg/injection, schedule: Q01DX010 (ip), vehicle: saline) 86 % of control.
Consider `O=C(Nc1ccc(NC2=NCCN2)cc1)c1ccc(C(=O)Nc2ccc(NC3=NCCN3)cc2)cc1`, for which the T/C was 113 % of control and 123 % of control under setting [13]; 172 % of control and 190 % of control under setting [7]; 109 % of control and 114 % of control under setting [12].
Consider `N=[N+]=CC(=O)OCC(N)C(=O)O` (configuration not stated), for which the T/C under setting [1] is 150 % of control.
For the molecule `CSc1ncnc2nc[nH]c12`, the T/C reads like this: under setting [2], 100 % of control; under setting [3], 95 % of control; under setting [4], 100 % of control; under setting [5], 100 % of control.
On to `COc1cc(-c2ccc(Nc3ccccc3C(=O)O)c(OC)c2)ccc1Nc1ccccc1C(=O)O`, for which the T/C was 112 % of control under setting [3], 104 % of control under setting [4] and 100 % of control under setting [5].
Turning to `O=c1[nH]c(=O)n(C2CC(O)C(CO)O2)cc1F` (configuration not stated), the T/C reads like this: under setting [8], 109 % of control; under setting [9], 115 % of control and 118 % of control; under setting [14], 154 % of control; (dose: 80.0 mg/kg/injection, schedule: Q01DX010 (ip), vehicle: saline) 107 % of control.
As for `O=C(O)CCCc1ccc(N(CCCl)CCCl)cc1`, the T/C is 110 % of control under setting [15] and 120 % of control under setting [1].
Take `Nc1nc(=S)c2ncn(C3OC(CO)C(O)C3O)c2[nH]1` (configuration not stated): the T/C by setting is: under setting [11], 113 % of control; under setting [13], 100 % of control and 111 % of control; under setting [16], 100 % of control and 90 % of control; under setting [7], 107 % of control.
Take `COc1ccc2c(c1OC)C(=O)O[C@@H]2[C@H]1c2c(cc3c(c2OC)OCO3)CCN1C`: the T/C was 100 % of control (dose: 15.6 mg/kg/injection, schedule: Q01DX010 (ip), vehicle: saline); 95 % of control and 100 % of control (2×) (dose: 31.3 mg/kg/injection, schedule: Q01DX010 (ip), vehicle: saline); 87 % of control and 90 % of control (2×) (dose: 62.5 mg/kg/injection, schedule: Q01DX010 (ip), vehicle: saline); 86 % of control and 87 % of control and 90 % of control (dose: 125.0 mg/kg/injection, schedule: Q01DX010 (ip), vehicle: saline); 90 % of control (dose: 250.0 mg/kg/injection, schedule: Q01DX010 (ip), vehicle: saline).
Take `O=P1(N(CCCl)CCCl)NCCCO1` (configuration not stated): the T/C is 162 % of control and 207 % of control (dose: 200.0 mg/kg/injection, schedule: Q01DX001 (ip), vehicle: saline); 171 % of control and 241 % of control (dose: 300.0 mg/kg/injection, schedule: Q01DX001 (ip), vehicle: saline).
As for `COC(=O)C[C@](O)(CCCC(C)(C)O)C(=O)O[C@@H]1C(OC)=C[C@]23CCCN2CCc2cc4c(cc2[C@H]13)OCO4`, the T/C is, setting by setting: (dose: 1.5 mg/kg/injection, schedule: Q01DX009 (ip), vehicle: acid diluted with saline) 96 % of control; (dose: 2.0 mg/kg/injection, schedule: Q01DX009 (ip), vehicle: acid diluted with saline) 91 % of control.
As to `O=[n+]1c2c(n([O-])c3ccccc31)-c1cccc3cccc-2c13`, the T/C runs as follows: under setting [15], 90 % of control; under setting [1], 90 % of control; under setting [2], 90 % of control; under setting [3], 90 % of control.
`CN(C)c1ccc(/C=C/c2ccnc3ccccc23)cc1`: the T/C was 100 % of control under setting [8]; 100 % of control and 104 % of control under setting [9]; 95 % of control and 100 % of control under setting [10]; 95 % of control and 109 % of control under setting [14].
With `O[C@H](CN1CC1)[C@@H](O)CN1CC1`, the T/C was 123 % of control (dose: 62.5 micrograms/kg/injection, schedule: Q01DX010 (ip), vehicle: saline) and 173 % of control (dose: 500.0 micrograms/kg/injection, schedule: Q01DX010 (ip), vehicle: saline).
With `C#CCN(C)Cc1ccccc1`, the T/C is 104 % of control under setting [3]; 100 % of control and 90 % of control under setting [4]; 90 % of control under setting [5]; 100 % of control and 90 % of control (dose: 200.0 mg/kg/injection, schedule: Q01DX010 (ip), vehicle: saline).
In the case of `C=CC(CN1CC1)OC(C)=O` (configuration not stated), the T/C by setting is: under setting [13], 104 % of control; under setting [16], 122 % of control; under setting [12], 104 % of control.
